Test results reported in patent US20260014118A1, “VITAMINS FOR USE IN IMPROVING GUT HEALTH” (DSM IP ASSETS B.V., priority 2022, published 2026).

System: Bifidobacterium animalis ssp. lactis DSM 32269
Test: Short-term batch-fermentation (colonic incubation, M-SHIME colon model) with fecal inocula of six human donors; qPCR on groEL gene
Type: cell-based
Conditions: 48 h colonic incubation; for levels of Bifidobacterium animalis ssp. lactis (DSM 32269 specific groEL gene copies) in the lumen environment, as compared to the respective control: average of six donors, co-supplemented with probiotic 1*10^9 CFU, vitamin B2 0.01667 g/L, vitamin C 0.333 g/L, vitamin D3 0.000025 g/L
Description: A short-term batch-fermentation experiment was carried out by ProDigest, consisting of a colonic incubation of a representative dose of a selected vitamin with a representative bacterial inoculum under simulated conditions for the proximal large intestine. In the current experiment, the bacterial inocula were derived from fresh fecal samples of six different healthy adult donors. Incubations were performed as described previously (Van den Abbeele, P.; Taminiau, B.; Pinheiro, I.; Duysburgh, C.; Jacobs, H.; Pijls, L.; Marzorati, M. Arabinoxylo-Oligosaccharides and Inulin Impact Inter-Individual Variation on Microbial Metabolism and Composition, Which Immunomodulates Human Cells. J. Agric. Food Chem. 2018, 66, 1121-1130). At the start of the short-term colonic incubation, fresh fecal material from six healthy human donors was collected and upon preparation of an anaerobic fecal slurry, this slurry was inoculated at 10 vol % in a SHIME nutritional medium containing basal nutrients containing 3.5 g/L K2HPO4, 10.9 g/L KH2PO4, 2 g/L NaHCO3(Chem-lab NV, Zedelgem, Belgium), 2 g/L yeast extract, 2 g/L peptone (Oxoid, Aalst, Belgium), 1 g/L mucin (Carl Roth, Karlsruhe, Germany), 0.5 g/L L-cysteine and 2 mL/L Tween80 (Sigma-Aldrich, Bornem, Belgium). All test ingredients (i.e., probiotic strain, vitamin B2, C, or D3) were also added to the SHIME medium. Furthermore, M-SHIME® technology was incorporated in the current experiment by adding mucin-covered microcosms (modeling the mucus of the colon) to the incubations as described previously (Van den Abbeele, P., et al. (2013). Butyrate-producing Clostridium cluster XIVa species specifically colonize mucins in an in vitro gut model. The ISME Journal 7 (5), 949-961). Incubations were performed for 48 h, at 37° C., under shaking (90 rpm) and anaerobic conditions.
In this study, the Bifidobacterium animalis ssp. lactis BB-12 equivalent Bifidobacterium animalis ssp. lactis DSM 32269 (Biocare Copenhagen) was added to the colon model containing the donor samples, alone or in combination with vitamin B2, C, or D (see Table 1). After 48 h of incubation, the abundance of the added strain was analyzed using primers that are specific for Bifidobacterium animalis ssp. lactis BB-12/Bifidobacterium animalis ssp. lactis DSM 32269. Experiments were performed in single repetition.
The Bifidobacterium animalis ssp. lactis BB-12 equivalent strain Bifidobacterium animalis ssp. lactis DSM 32269 was added to the SHIME medium as an overnight grown culture at a concentration of 1*10^9 CFU. The probiotic strain was either supplemented alone or in combination with vitamin B2, vitamin C or vitamin D3 (DSM). Vitamin B2, C, and D3 was added at a concentration of 0.01667 g/L, 0.333 g/L and 0.000025 g/L, respectively, which translates into a 10 mg, 200 mg, and […] dose, respectively, given that the colon volume is about 600 ml.
qPCR was performed on groEL gene (NCBI reference CP003497) to monitor the level of the supplemented Bifidobacterium animalis ssp. lactis DSM 32269 strain within the gut microbiome, as described previously (Junick et al. (2012), Quantification of Human Fecal Bifidobacterium Species by Use of Quantitative Real-Time PCR Analysis Targeting the groEL Gene). Samples were analyzed from the lumen and mucus environment following 48 h of incubation.
Statistical analysis was performed to investigate the average effect of the test products. For this purpose, the average over the six donors was calculated for each endpoint. […]

[1] = control = probiotic only, p<0.05

For `Cc1cc2nc3c(=O)[nH]c(=O)nc-3n(C[C@H](O)[C@H](O)[C@H](O)CO)c2cc1C` [vitamin B2, riboflavin], the “levels of Bifidobacterium animalis ssp. lactis (DSM 32269 specific groEL gene copies) in the lumen environment, as compared to the respective control” value [1] was “significantly increased”, the “levels of Bifidobacterium animalis ssp. lactis in the mucus environment, as compared to the respective control” value (mucus, vitamin B2 0.01667 g/L co-supplemented with probiotic, control = probiotic only, p<0.05) was “significantly increased” and the “copies of the Bifidobacterium animalis ssp. lactis DSM 32269 specific groEL gene in the mucus environment, relative to control” value (mucus, vitamin B2 0.01667 g/L co-supplemented with probiotic, versus probiotic only) was “around 6 times”.

For `O=C1O[C@H]([C@@H](O)CO)C(O)=C1O` [vitamin C, L-ascorbic acid], the “levels of Bifidobacterium animalis ssp. lactis (DSM 32269 specific groEL gene copies) in the lumen environment, as compared to the respective control” value [1] was “significantly increased”.

With `C=C1CC[C@H](O)C/C1=C/C=C1\CCC[C@]2(C)[C@@H]([C@H](C)CCCC(C)C)CC[C@@H]12` [vitamin D, cholecalciferol] the “levels of Bifidobacterium animalis ssp. lactis (DSM 32269 specific groEL gene copies) in the lumen environment, as compared to the respective control” value [1] was “significantly increased”.
